Assay results taken from paper PMC9474448, “Assembly of transmembrane pores from mirror-image peptides” (Nature Communications, 2022).

Legend:
Assay type in all cases: binding
DcWza = test: Single-channel analyte blocking of DcWza pore; settings: 100 μM, trans; +100 mV; 1 M KCl, 10 mM HEPES, pH 7.4
Procedure: (§1) Electrical recordings were carried out by using bilayers of 1,2-diphytanoyl-sn-glycero-3-phosphocholine (DPhPC, Avanti Polar Lipids) formed across ~100 µm in diameter polytetrafluoroethylene (Teflon) film of 25 µm thick (Goodfellow, Cambridge)[59]. The Teflon film is sandwiched between two sides of the Delrin bilayer chamber, called cis and trans compartments (500 µL each). Solvent-free bilayers were formed by pre-treating the aperture with hexadecane in n-pentane (1 μL, 5 mg mL^−1) on each side of the bilayer chamber. Then the bilayer chamber was filled with the electrolyte solution (1 M KCl, 10 mM HEPES, pH 7.4) and DPhPC in n-pentane (2 μL, 5 mg mL^−1) was added to both sides of the chamber. After 5 min, a bilayer was formed when the electrolyte was raised, bringing the two lipid surface monolayers together at the aperture. pPorA pores were formed by adding self-assembled preoligomers extracted from the SDS PAGE gel to the cis side of the chamber. The cWza pores were formed by adding peptide solution in 0.1% DDM (1 µL, 100 µg mL^−1) to the cis side. The cis chamber was connected to the grounded electrode and the trans chamber was attached to the working electrode. […] The reverse potential was determined to calculate the permeability ratio of K^+ and Cl^- ions across the pore (Supplementary text). […]

LpPorA = test: Single-channel analyte blocking of LpPorA pore; settings: +50 mV; am8γCD 1 µM trans; 1 M KCl; n = 3
Procedure: as §1

DpPorA = test: Single-molecule sensing: analyte blocking of single DpPorA pore; settings: 1 M KCl; for ion current blockage of single DpPorA (in words): 10 mM HEPES pH 7.4, am8γCD 10 μM trans at positive voltages, γCD, s8γCD 100 μM cis, D9, R4 10 μM cis
Procedure: Electrical recordings were carried out by using bilayers of 1,2-diphytanoyl-sn-glycero-3-phosphocholine (DPhPC, Avanti Polar Lipids) formed across ~100 µm in diameter polytetrafluoroethylene (Teflon) film of 25 µm thick (Goodfellow, Cambridge)[59]. The Teflon film is sandwiched between two sides of the Delrin bilayer chamber, called cis and trans compartments (500 µL each). Solvent-free bilayers were formed by pre-treating the aperture with hexadecane in n-pentane (1 μL, 5 mg mL^−1) on each side of the bilayer chamber. Then the bilayer chamber was filled with the electrolyte solution (1 M KCl, 10 mM HEPES, pH 7.4) and DPhPC in n-pentane (2 μL, 5 mg mL^−1) was added to both sides of the chamber. After 5 min, a bilayer was formed when the electrolyte was raised, bringing the two lipid surface monolayers together at the aperture. pPorA pores were formed by adding self-assembled preoligomers extracted from the SDS PAGE gel to the cis side of the chamber. The cWza pores were formed by adding peptide solution in 0.1% DDM (1 µL, 100 µg mL^−1) to the cis side. The cis chamber was connected to the grounded electrode and the trans chamber was attached to the working electrode. A potential difference was applied through a pair of Ag/AgCl electrodes, set in 3% agarose containing 3.0 M KCl. We investigated the ion selectivity of pores using the KCl salt gradient applied across the bilayer chambers (1 M cis /0.15 M trans). The reverse potential was determined to calculate the permeability ratio of K^+ and Cl^- ions across the pore (Supplementary text). The current was amplified using an Axopatch 200B amplifier, digitized with a Digidata 1550B digitizer (pCLAMP 11.0, Molecular Devices, CA) with a low-pass filter frequency of 10 kHz and a sampling frequency of 50 kHz or a low-pass filter frequency of 2 kHz and a sampling frequency of 10 kHz. Single-channel data analysis was conducted using Clampfit 11.0 (Molecular devices, CA). Histogram plotting were performed in OriginPro 2022 (OriginLab).

## NCC1OC2OC3C(CN)OC(OC4C(CN)OC(OC5C(CN)OC(OC6C(CN)OC(OC7C(CN)OC(OC8C(CN)OC(OC9C(CN)OC(OC1C(O)C2O)C(O)C9O)C(O)C8O)C(O)C7O)C(O)C6O)C(O)C5O)C(O)C4O)C(O)C3O (centres unmarked) [am8γCD]
DcWza
  ion current blockage of DcWza in the open state (in words): no blockages were observed
LpPorA
  mean blockage time (τoff): 0.22 ± 0.03 ms
DpPorA; 10 μM analyte, cis, negative voltages
  pore block (closure) of DpPorA (S): 100%
DpPorA
  ion current blockage of single DpPorA (in words): complete pore closure

## OC[C@H]1O[C@@H]2O[C@H]3[C@H](O)[C@@H](O)[C@@H](O[C@H]4[C@H](O)[C@@H](O)[C@@H](O[C@H]5[C@H](O)[C@@H](O)[C@@H](O[C@H]6[C@H](O)[C@@H](O)[C@@H](O[C@H]7[C@H](O)[C@@H](O)[C@@H](O[C@H]8[C@H](O)[C@@H](O)[C@@H](O[C@H]9[C@H](O)[C@@H](O)[C@@H](O[C@H]1[C@H](O)[C@H]2O)O[C@@H]9CO)O[C@@H]8CO)O[C@@H]7CO)O[C@@H]6CO)O[C@@H]5CO)O[C@@H]4CO)O[C@@H]3CO [γCD]
DpPorA
  ion current blockage of single DpPorA (in words): did not produce any current blockages
